Data on one compound can be found in paper PMC7108740, “Exploring the molecular structures that confer ligand selectivity for galanin type II and III receptors” (PLoS ONE, 2020).

Format in all cases: cell-based
Assay [1] addresses T1, GALR3 single mutant F^265P (Homo sapiens, UniProt O60755).
T1 construct: expressed in transfected cells; host or cells: HEK293 cells stably expressing Gqi
As to the kind of experiment: SRE-luc luciferase assay, GALR3 F265P. The note with it: GALR3 F^265P; SRE-luc in HEK293 Gqi cells, ligand 6 h; mean ± S.E. The text has this:
(§1) For domain swapping between GALR2 and GALR3, individual cDNA fragments of interest were amplified by polymerase chain reaction (PCR) with Pfu polymerase (ELPIS Biotech, Daejeon, Korea) and two specific primers, one corresponding to the 5' or 3' end of the GALR2 or GALR3 cDNA and the other to the region of overlap between the two receptors. The two resulting fragments, one from GALR2 and the other from GALR3, were subjected to a second round of PCR to generate the chimeric cDNAs. To construct single, double-, triple-, pentuple-, hextuple-, and septuple-mutant receptors, amino acids of GALR3 were substituted for the amino acids at the corresponding positions in GALR2 using PCR-based site-directed mutagenesis. All of the chimeric constructs were cloned into the pcDNA3 expression vector at HindⅢ and XbaⅠ sites. The DNA sequences of the chimeras were verified by automatic sequencing. […] The luciferase activity in 50 μl cell extract was determined using a luciferase assay system according to the standard protocol for the Synergy 2 Multi-Mode Microplate Reader (BioTek, Winooski, VT, USA). […] The concentrations of agonists that induced half-maximal stimulation (EC50) were calculated using the GraphPad PRISM5 software (GraphPad software, Inc., San Diego, CA). […]

Assay [2] addresses T2, GALR3 single mutant A^264P (Homo sapiens, UniProt O60755, A264P).
T2 construct: expressed in transfected cells; host or cells: HEK293 cells stably expressing Gqi
The assay is described as follows: SRE-luc luciferase assay, GALR3 A264P. Particulars: GALR3 A^264P; SRE-luc in HEK293 Gqi cells, ligand 6 h; mean ± S.E.; SEM.
Excerpt: as §1

For assay [3], the target named is T3, GALR3 single mutant C^272L (Homo sapiens, UniProt O60755, C272L).
T3 construct: expressed in transfected cells; host or cells: HEK293 cells stably expressing Gqi
T3 sequence (O60755 whole entry C272L): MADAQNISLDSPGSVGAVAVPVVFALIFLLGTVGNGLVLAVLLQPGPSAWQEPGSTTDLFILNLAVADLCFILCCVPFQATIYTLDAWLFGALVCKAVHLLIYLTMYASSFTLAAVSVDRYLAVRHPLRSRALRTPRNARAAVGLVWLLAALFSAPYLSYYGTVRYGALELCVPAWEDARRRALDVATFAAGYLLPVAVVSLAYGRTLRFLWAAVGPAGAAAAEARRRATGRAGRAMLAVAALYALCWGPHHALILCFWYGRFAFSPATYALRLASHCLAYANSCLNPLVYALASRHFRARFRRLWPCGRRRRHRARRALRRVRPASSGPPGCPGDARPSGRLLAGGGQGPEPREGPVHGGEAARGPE
The assay is described as follows: SRE-luc luciferase assay, GALR3 C272L. The note with it: GALR3 C^272L; SRE-luc in HEK293 Gqi cells, ligand 6 h; mean ± S.E.; SEM.
Excerpt: as §1

A further assay concerns the target T4, GALR3 septuple (Homo sapiens, UniProt O60755, A190V/A191F/C272L/G192S/L100F/Y103F/Y107H).
T4 construct: expressed in transfected cells; host or cells: HEK293 cells stably expressing pGlosensor-22F cAMP plasmid
T4 sequence (O60755 1-368 L100F/Y103F/Y107H/A190V/A191F/G192S/C272L): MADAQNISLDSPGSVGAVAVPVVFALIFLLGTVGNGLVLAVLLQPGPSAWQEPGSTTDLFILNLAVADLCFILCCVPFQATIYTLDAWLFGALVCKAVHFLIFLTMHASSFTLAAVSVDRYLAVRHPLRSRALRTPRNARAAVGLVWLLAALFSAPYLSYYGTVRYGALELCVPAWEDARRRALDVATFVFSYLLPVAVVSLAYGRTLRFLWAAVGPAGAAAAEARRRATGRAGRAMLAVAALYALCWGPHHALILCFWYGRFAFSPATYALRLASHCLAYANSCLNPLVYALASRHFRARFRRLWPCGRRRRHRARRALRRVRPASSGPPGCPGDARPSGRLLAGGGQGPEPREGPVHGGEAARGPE
As to the kind of experiment: cAMP assay (inhibition of forskolin-induced cAMP), GALR3 septuple mutant. The note with it: Glosensor-22F cAMP HEK293 cells, agonist 10 min then forskolin 10 μM, mean ± SE, SEM. As for the experimental part: SPX-induced or Qu-SPX-induced cyclic adenosine monophosphate (cAMP) mobilization was measured in HEK293 cells stably expressing the pGlosensor^TM-22F cAMP plasmid (Promega Corp., Madison, WI, USA). The Glosensor-22F cAMP HEK293 cells were seeded on 96-well plates at a density of 2.0 × 10^4 cells/well 24 h before transfection. A mixture including 100 ng expression plasmid and lipofectamine 2000 reagent in diluted Opti-MEM (Gibco) was incubated at room temperature for 20 min. The mixtures were added into each well according to the manufacturer's instructions (Invitrogen, CA, USA). After 48 h, Glosensor cAMP substrates were added to the transfected cells in CO2-independent media. After 2 h, the cells were incubated with a range of agonist concentrations or vehicle for 10 min and then exposed to foskolin (10 μM). Luminescence was measured for up to 30 min using a Microplate Reader (BioTek, Winooski, VT, USA).
Data analysis was performed by non-linear regression with a sigmoidal dose-response curve. The concentrations of agonists that induced half-maximal stimulation (EC50) were calculated using the GraphPad PRISM5 software (GraphPad software, Inc., San Diego, CA). All data are presented as the mean ± standard error (SE) of at least three independent experiments. […]
On the technique in general: cAMP levels reflect the balance of adenylyl cyclase and phosphodiesterase activity.

Molecules are shown by their SMILES.

T2 sequence (O60755 whole entry A264P): as the sequence (O60755 whole entry C272L) above, with A264P, L272C counted along it
T1 sequence (O60755 whole entry F265L): as the sequence (O60755 whole entry C272L) above, with F265L, L272C counted along it

As usually defined, the EC50 is the midpoint of the concentration-response curve. Take `CSCC[C@H](NC(=O)[C@H](C)NC(=O)[C@H](CCC(N)=O)NC(=O)[C@@H]1CCCN1C(=O)[C@@H](NC(=O)[C@H](Cc1c[nH]c2ccccc12)NC(=O)[C@@H](N)CC(N)=O)[C@@H](C)O)C(=O)N[C@@H](CC(C)C)C(=O)N[C@@H](Cc1ccc(O)cc1)C(=O)N[C@@H](CC(C)C)C(=O)N[C@@H](CCCCN)C(=O)NCC(=O)N[C@@H](C)C(=O)N[C@@H](CCC(N)=O)C(N)=O` [SPX, reference compound]: the EC50 in assay [1] was above 1000 nM; in assay [2], 274 ± 76 nM; in assay [3], 28.8 ± 6.96 nM; at GALR3 septuple, 77.6 ± 38.7 nM.
